“Also recorded” adds a separate entry of the source. Read-outs that look alike come from different tables or passages of the source. A value given as a limit tells only on which side of the number the result lay.

One data set has as its system guinea pigs. The conditions noted are these: cited from earlier work.
A further data set addresses 5-HT1B receptor (Homo sapiens, UniProt P28222). The note with it: cited from earlier work.
Another data set has as its target 5-HT2B receptor (Homo sapiens, UniProt P41595). The note with it: cited from earlier work.
For the next data set, the target named is T1, 5-HT2C receptor (Homo sapiens, UniProt P28335).
T1 sequence (P28335 33-458): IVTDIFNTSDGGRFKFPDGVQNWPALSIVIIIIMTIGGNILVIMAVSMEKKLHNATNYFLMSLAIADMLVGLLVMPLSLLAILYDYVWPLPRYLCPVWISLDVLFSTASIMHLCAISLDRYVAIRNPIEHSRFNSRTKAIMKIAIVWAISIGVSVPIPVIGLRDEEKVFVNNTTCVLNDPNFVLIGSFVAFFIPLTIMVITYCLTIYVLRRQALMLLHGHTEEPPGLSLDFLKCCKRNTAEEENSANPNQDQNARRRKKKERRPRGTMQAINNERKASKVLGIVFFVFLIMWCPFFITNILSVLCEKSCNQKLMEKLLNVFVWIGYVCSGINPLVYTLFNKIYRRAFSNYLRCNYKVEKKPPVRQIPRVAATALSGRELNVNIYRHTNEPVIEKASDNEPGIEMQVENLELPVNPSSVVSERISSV
The note with it: cited from earlier work.

For another data set, the target named is 5-HT7 receptor (Homo sapiens, UniProt P34969). The note with it: cited from earlier work.
For data set [1], the system named is C57BL/6NJ mice. The data set can be described thus: hypothermia bioassay for blood-brain barrier penetration in mice.
Method: (§1) In some embodiments, the hypothermia bioassay described herein is used to determine whether a drug passes the BBB.
(§2) Thus, if mice developed hypothermia following administration of a drug, the drug was determined to cross the blood-brain barrier. […] Both drugs were formulated using 5% Kolliphor® HS-15 and 5% NMP in saline as a vehicle, as using dimethyl sulfoxide (DMSO), a standard solvent, caused hypothermia by itself.
(§3) The temperature of mice was then monitored for 120 minutes following injection.
The next data set has as its target T2, 5-HT1A receptor (Homo sapiens, UniProt P08908).
T2 sequence (P08908 1-422): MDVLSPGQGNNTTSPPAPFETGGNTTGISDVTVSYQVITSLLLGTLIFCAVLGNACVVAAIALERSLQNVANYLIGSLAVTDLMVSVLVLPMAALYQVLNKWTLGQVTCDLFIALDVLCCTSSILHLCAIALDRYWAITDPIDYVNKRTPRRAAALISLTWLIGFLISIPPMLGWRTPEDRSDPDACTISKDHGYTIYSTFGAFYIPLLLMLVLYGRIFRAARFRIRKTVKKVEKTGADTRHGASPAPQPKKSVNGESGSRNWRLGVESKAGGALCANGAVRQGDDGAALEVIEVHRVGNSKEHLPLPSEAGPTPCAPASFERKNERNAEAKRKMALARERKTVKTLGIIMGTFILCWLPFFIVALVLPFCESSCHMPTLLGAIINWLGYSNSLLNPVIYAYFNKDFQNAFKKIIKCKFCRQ
The note with it: cited from earlier work.

Another data set deals with 5-HT1E receptor (Homo sapiens, UniProt P28566). The conditions noted are these: cited from earlier work.
The target of another data set is 5-HT2A receptor (Homo sapiens, UniProt P28223). The note with it: cited from earlier work.
A further data set deals with mice addicted to cocaine. Kind of data set: cocaine intravenous self-administration (IVSA) in cocaine-addicted mice. The class given is in vivo. The procedure:
The efficacy of PNU-109291 treatment in mice addicted to cocaine was tested. Mice first acquired cocaine IVSA at 0.75 mg/kg cocaine per dose at a fixed-ratio-1 reinforcement schedule, then a fixed-ratio-5 schedule until they stabilized their drug-taking behavior. The animals were then injected with descending doses of PNU-109291 prior to IVSA sessions. Doses of PNU-109291 were separated by vehicle injection, and vehicle-first versus agonist-first order was randomized and counterbalanced.

For the next data set, the target named is 5-HT6 receptor (Homo sapiens, UniProt P50406). The conditions noted are these: cited from earlier work.
For data set [2], the system named is C57BL/6NJ mice. The conditions noted are these: mouse, in vivo, iv, 10 mg/kg.
Method: as §1, §2, §3

Chain of 5-HT1E receptor (P28566 whole entry): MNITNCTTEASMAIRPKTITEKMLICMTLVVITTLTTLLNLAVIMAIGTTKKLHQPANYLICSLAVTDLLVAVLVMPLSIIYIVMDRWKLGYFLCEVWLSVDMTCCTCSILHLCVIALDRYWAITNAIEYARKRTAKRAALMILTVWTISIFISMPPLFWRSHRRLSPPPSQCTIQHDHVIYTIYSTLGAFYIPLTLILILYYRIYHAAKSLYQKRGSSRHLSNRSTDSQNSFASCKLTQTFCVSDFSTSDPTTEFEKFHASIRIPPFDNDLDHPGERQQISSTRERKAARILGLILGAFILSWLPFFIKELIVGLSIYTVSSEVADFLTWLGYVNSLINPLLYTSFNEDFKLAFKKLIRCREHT
Chain of 5-HT1B receptor (P28222 whole entry): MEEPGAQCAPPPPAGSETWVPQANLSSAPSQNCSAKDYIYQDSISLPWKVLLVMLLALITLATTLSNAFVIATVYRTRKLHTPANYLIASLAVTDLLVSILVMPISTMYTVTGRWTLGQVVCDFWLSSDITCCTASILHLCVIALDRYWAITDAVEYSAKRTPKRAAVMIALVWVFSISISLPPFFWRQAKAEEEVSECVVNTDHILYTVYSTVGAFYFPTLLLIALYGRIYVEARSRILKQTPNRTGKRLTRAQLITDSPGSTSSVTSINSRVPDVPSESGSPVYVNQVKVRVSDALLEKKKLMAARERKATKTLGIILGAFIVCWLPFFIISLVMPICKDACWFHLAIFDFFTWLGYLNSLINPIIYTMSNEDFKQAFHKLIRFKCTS
Chain of 5-HT2A receptor (P28223 whole entry): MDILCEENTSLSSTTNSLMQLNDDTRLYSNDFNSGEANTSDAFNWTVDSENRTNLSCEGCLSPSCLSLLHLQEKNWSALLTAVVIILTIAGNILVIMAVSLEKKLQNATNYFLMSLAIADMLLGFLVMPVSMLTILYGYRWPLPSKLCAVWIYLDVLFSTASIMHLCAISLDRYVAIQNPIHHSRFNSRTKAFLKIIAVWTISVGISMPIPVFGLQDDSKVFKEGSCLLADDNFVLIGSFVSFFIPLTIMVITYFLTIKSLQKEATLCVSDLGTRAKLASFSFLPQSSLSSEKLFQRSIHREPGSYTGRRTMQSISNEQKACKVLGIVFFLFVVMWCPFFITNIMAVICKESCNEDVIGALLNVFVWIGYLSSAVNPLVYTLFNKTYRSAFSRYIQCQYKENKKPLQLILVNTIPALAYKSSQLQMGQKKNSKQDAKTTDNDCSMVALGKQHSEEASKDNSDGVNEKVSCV
Chain of 5-HT2B receptor (P41595 whole entry): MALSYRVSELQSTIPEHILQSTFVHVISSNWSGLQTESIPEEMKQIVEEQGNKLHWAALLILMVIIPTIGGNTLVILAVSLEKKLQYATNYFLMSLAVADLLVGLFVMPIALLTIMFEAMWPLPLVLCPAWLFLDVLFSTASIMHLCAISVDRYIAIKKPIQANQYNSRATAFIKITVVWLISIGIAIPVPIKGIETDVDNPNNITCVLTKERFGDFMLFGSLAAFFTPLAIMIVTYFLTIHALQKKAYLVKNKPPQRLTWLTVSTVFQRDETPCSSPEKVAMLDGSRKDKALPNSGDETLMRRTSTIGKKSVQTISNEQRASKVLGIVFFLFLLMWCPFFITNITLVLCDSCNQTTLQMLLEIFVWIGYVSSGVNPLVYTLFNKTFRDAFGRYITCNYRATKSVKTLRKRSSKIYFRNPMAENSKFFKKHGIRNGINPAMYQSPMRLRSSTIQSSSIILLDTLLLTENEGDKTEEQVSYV
Chain of 5-HT7 receptor (P34969 whole entry): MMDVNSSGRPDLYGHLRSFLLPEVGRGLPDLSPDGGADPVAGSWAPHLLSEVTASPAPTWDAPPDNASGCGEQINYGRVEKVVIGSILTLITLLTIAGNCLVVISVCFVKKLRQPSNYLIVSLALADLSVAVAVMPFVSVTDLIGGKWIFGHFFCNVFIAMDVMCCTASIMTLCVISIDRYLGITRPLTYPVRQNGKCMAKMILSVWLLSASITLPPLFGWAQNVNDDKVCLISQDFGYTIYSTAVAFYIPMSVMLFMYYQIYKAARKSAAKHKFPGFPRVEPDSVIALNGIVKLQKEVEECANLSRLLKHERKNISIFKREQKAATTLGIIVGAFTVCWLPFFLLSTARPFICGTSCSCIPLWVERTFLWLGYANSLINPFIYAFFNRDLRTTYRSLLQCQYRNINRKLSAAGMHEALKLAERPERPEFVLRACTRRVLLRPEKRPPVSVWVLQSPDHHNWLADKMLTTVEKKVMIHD
Chain of 5-HT6 receptor (P50406 whole entry): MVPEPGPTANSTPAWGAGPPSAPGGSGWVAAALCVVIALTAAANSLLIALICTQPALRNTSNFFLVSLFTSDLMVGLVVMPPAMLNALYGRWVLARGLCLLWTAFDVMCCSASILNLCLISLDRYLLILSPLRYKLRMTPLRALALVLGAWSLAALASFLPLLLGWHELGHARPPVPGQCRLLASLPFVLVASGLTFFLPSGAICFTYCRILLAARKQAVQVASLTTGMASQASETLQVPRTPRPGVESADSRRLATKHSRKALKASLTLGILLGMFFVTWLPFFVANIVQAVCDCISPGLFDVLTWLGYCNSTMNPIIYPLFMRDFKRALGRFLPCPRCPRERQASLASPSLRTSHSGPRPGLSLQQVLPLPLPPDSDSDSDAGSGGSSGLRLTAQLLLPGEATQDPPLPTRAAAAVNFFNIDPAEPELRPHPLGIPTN

`COc1ccc(CNC(=O)/C=C/c2ccc3[nH]cc(CCN(C)C)c3c2)cc1` [GR46611]: the central hypothermia result with guinea pigs (injected directly into the lateral ventricles of guinea pigs) is recorded as “caused central hypothermia”.

As for `CNC(=O)c1ccc2c(c1)CCO[C@H]2CCN1CCN(c2ccc(OC)cc2)CC1` [PNU-109291, (S)-3,4-Dihydro-1-[2-[4-(4-methoxyphenyl)-1-piperazinyl]ethyl]-N-methyl-1H-2-benzopyran-6-carboxamide], at 5-HT1B receptor, the “activity at 5-HT1B receptor” value is recorded as “no activity”. Also, the “activity at 5-HT2B receptor” value on 5-HT2B receptor is given as “no activity”. Also, the “activity at 5-HT2C receptor” value on 5-HT2C receptor is “no activity”. In addition, the “activity at 5-HT7 receptor” value on 5-HT7 receptor is given as “no activity”. In the data set on C57BL/6NJ mice [1] (intravenous administration in mice, dose not given), the central hypothermia entry is “caused central hypothermia at levels comparable to a known BBB-permeable drug”. The “central hypothermia (internal temperature)” value in the data set with C57BL/6NJ mice [1] (intravenous injection, 10 mg/kg, temperature monitored for 120 minutes, vehicle 5% Kolliphor HS-15 and 5% NMP in saline) is “induced central hypothermia”. In the data set on C57BL/6NJ mice [1] (intravenous, 10 mg/kg, mice), the “blood-brain barrier penetration, inferred from hypothermia” value was “can bypass the blood-brain barrier; also recorded: penetrates the blood-brain barrier”. For the same compound, the “selectivity for 5-HTR1D over 5-HT1A receptor” value at 5-HT1A receptor is reported as > 600 -fold. Further, the “activity at 5-HT1E receptor” value at 5-HT1E receptor is listed as “no activity”. The “selectivity for 5-HTR1D over 5-HT2A receptor” value on 5-HT2A receptor is > 600 -fold. Besides, in the data set with mice addicted to cocaine (intravenous pre-treatment, 10 mg/kg body weight, before IVSA session), the “volitional cocaine-taking (total infusions of cocaine self-administered)” value was “significant dose effect; also recorded: reduced volitional cocaine-taking behavior”. Also, the inactive lever presses entry in the data set with mice addicted to cocaine (intravenous pre-treatment, range of doses) is “no differences in inactive lever presses; also recorded: no effect”. In addition, in the data set with mice addicted to cocaine (range of doses, cocaine-addicted mice), the “cocaine self-administration, dose dependence” value is “dose-dependent decrease in cocaine self-administration”. The “activity at 5-HT6 receptor” value on 5-HT6 receptor is “no activity”.

For `CNS(=O)(=O)Cc1ccc2[nH]cc(CCN(C)C)c2c1` [sumatriptan], the central hypothermia entry in the data set on guinea pigs (injected subcutaneously, guinea pigs) is on record as “does not”.

Turning to `CN(C)CCc1c[nH]c2ccc(C[C@H]3COC(=O)N3)cc12` [zolmitriptan], the “blood-brain barrier penetration, inferred from hypothermia” value in the data set with C57BL/6NJ mice [2] is on record as “can bypass the blood-brain barrier”.

(Values after patent US20260263449A1, “METHODS AND COMPOSITIONS FOR TREATING COCAINE ADDICTION” (The Jackson Laboratory, priority 2023, published 2026).)
